# Source: patent publication US8552048B2, “Phosphoramidate alkylator prodrugs for the treatment of cancer” (Threshold Pharmaceuticals, Inc., priority 2006, dated 2013)
# Entries after “also recorded” stand apart in the source; their conditions may differ.
# Key:
# [1] = Single-dose toxicity in dogs; assay type: in vivo
# Description: A single-dose of TH302 was administered to rats and dogs over 30 min in order to achieve a rapid increase to relatively high drug levels. Rats were administered 50, 100, and 200 mg/kg, and dogs at 8, 16 and 32 mg/kg of TH302. […] These changes at the lowest toxicity level were fully reversible within 2 weeks.
# H460 xenograft tumor = experiment: H460 xenograft, TH302 in combination with X-ray radiation; assay type: in vivo, mice; conditions: X-ray 1.2 Gy/day for 5 days with TH302 ip 75 mg/kg per day for 5 days, 30 min after each radiation dose; 75 mg/kg/day
# Description: H460 xenograft tumor bearing mice were treated with X-ray radiation (one cycle of 1.2 Gy/day for 5 days) alone and in combination with TH302 (administered ip, 75 mg/kg per day for 5 consecutive days 30 min after each radiation dose). […] The oxygen radicals involved in killing tumor cells, and which are generated by irradiation of oxygen e.g. under normoxic conditions, can not form efficiently under hypoxic conditions.
# [2] = Pharmacokinetics of TH302 in Beagle Dogs (Table 6); assay type: in vivo; conditions: dog, plasma, intravenous; for half-life: read-out: T½ (converted); for Vd: read-out: Vss
# [3] = system: PC-3 human prostate cells; experiment: PC-3 luciferase intracardiac metastasis model (bioluminescence); assay type: in vivo, nude mice
# Description: Male nude mice were injected into their left ventricle with PC-3 human prostate cells (3×10^6) transfected with the gene for luciferase. The success of the intracardiac transfections was verified by a bioluminescence scan after the injection. On day 14, the mice with established bone tumor burden were randomized into four treatment groups (N=10): Taxotere® alone (20 mg/kg once a week for three weeks, i.v.), TH302 alone (50 mg/kg daily, 5 days a week for 3 weeks), combination treatment with both agents, and vehicle. Bioluminescence imaging was performed under anesthesia using an IVIS 50 optical imaging system.
# [4] = Pharmacokinetics in beagle dogs (20 mg/kg i.v.); assay type: in vivo; conditions: dog, plasma, iv
# Description: Pharmacokinetic studies were performed in male CD-1 (50 mg/kg i.p. or orally (p.o.)) or female nude mice (50 mg/kg i.v. or i.p.), male Sprague-Dawley rats (1, 5, 20 and 50 mg/kg i.v. and 100 mg/kg, p.o.), beagle dogs (20 mg/kg, i.v.) and cynomologus monkeys (20 mg/kg i.v.). Plasma TH302 concentrations were analyzed using a LC/MS method and the pharmacokinetic parameters computed using a noncompartmental method. Interspecies scaling was performed according to standard methods.
# [5] = system: H460 human non small cell cancer (NSCLC) cells; experiment: H460 tumor excision clonogenic assay (surviving fraction) under different oxygen levels; assay type: in vivo, mice; conditions: single 50 mg/kg i.v., tumors removed 24 h post treatment
# Description: H460 human non small cell cancer (NSCLC) cells were prepared in 30% or 50% matrigel in PRIM medium. Then 2×10^6 cells suspended in 50% matrigel were implanted subcutaneously in the right flank in 35 mice (0.2 mL/mouse), 0.5×10^6 cells suspended in 30% matrigel were similarly implanted in 30 mice. Mice bearing similar sized tumors, preferably ˜300 mm^3 were selected for TH302 administration. TH302 was formulated in saline and a single dose administered intravenously at 50 mg/kg.
# The mice were placed in 95% and 10% O2 chamber for 30 min before the dosing and returned to the chamber for 2 hours immediately after treatment. Twenty-four hours post treatment, tumors were removed. The tumor tissue was minced and obtain single cells were obtained by digesting the minced tissue with an enzyme cocktail for 15 min at 37° C. with stirring, and filtering through a 40 μm sterile mash. Cell numbers were counted by a coulter counter. After a serial dilution, the ells were placed in a 60 or 100 mm Petri dish and incubated at 37° C. for 8 to 10 days for the colonies to form. The colonies were counted after stained with crystal violet (0.25% in 95% ethanol). The plating efficiency (PE) was calculated by dividing the number of colonies formed by the number of cells seeded. The surviving fraction (SF) was calculated by dividing as the PE of treated cells by PE of the cells from saline control.
# [6] = TH302 alone 50 mg/kg daily, 5 days a week for 3 weeks, end of the study (day 43)
smiles,measurement,setting,value
Cn1c(COP(=O)(NCCBr)NCCBr)cnc1[N+](=O)[O-] [TH302],affected organs at the highest dose level,[1]; 32 mg/kg single dose,"bone marrow, kidney, thymus and intestine"
same,lethality,"[1]; single dose over 30 min, highest dose 32 mg/kg",lethality was observed
same,primary findings at the lowest toxicity level,[1]; single dose study,reduction in white blood cell counts
same,time to full reversal of changes at the lowest toxicity level,[1]; single dose study,≤ 2 weeks
same,effect on anti tumor efficacy of radiation,H460 xenograft tumor,enhances the anti cancer effect of X-ray; also recorded: enhances the anti tumor efficacy of radiation
same,AUC,"[2]; female, Females, 4 mg/kg",2.27 µg·h/mL
same,Cmax,"[2]; female, Females, 4 mg/kg",3.83 µg/mL
same,Tmax,"[2]; female, Females, 4 mg/kg",31 min
same,clearance,"[2]; female, Females, 4 mg/kg",1.76 L/h/kg
same,half-life,"[2]; female, Females, 4 mg/kg",16.1 min
same,Vd,"[2]; female, Females, 4 mg/kg",0.785 L/kg
same,AUC,"[2]; female, Females, 8 mg/kg",3.4 µg·h/mL
same,Cmax,"[2]; female, Females, 8 mg/kg",6.41 µg/mL
same,Tmax,"[2]; female, Females, 8 mg/kg",31.5 min
same,clearance,"[2]; female, Females, 8 mg/kg",2.38 L/h/kg
same,half-life,"[2]; female, Females, 8 mg/kg",15.1 min
same,Vd,"[2]; female, Females, 8 mg/kg",0.974 L/kg
same,AUC,"[2]; female, Females, 16 mg/kg",7.66 µg·h/mL
same,Cmax,"[2]; female, Females, 16 mg/kg",13.7 µg/mL
same,Tmax,"[2]; female, Females, 16 mg/kg",31 min
same,clearance,"[2]; female, Females, 16 mg/kg",2.09 L/h/kg
same,half-life,"[2]; female, Females, 16 mg/kg",16.7 min
same,Vd,"[2]; female, Females, 16 mg/kg",0.874 L/kg
same,AUC,"[2]; female, Females, 32 mg/kg",9.53 µg·h/mL
same,Cmax,"[2]; female, Females, 32 mg/kg",18.5 µg/mL
same,Tmax,"[2]; female, Females, 32 mg/kg",31 min
same,clearance,"[2]; female, Females, 32 mg/kg",3.39 L/h/kg
same,half-life,"[2]; female, Females, 32 mg/kg",15.4 min
same,Vd,"[2]; female, Females, 32 mg/kg",1.37 L/kg
same,AUC,"[2]; male, Males, 4 mg/kg",2.33 µg·h/mL
same,Cmax,"[2]; male, Males, 4 mg/kg",4.16 µg/mL
same,Tmax,"[2]; male, Males, 4 mg/kg",37 min
same,clearance,"[2]; male, Males, 4 mg/kg",1.7 L/h/kg
same,half-life,"[2]; male, Males, 4 mg/kg",16.1 min
same,Vd,"[2]; male, Males, 4 mg/kg",0.822 L/kg
same,AUC,"[2]; male, Males, 8 mg/kg",3.64 µg·h/mL
same,Cmax,"[2]; male, Males, 8 mg/kg",6.35 µg/mL
same,Tmax,"[2]; male, Males, 8 mg/kg",31.5 min
same,clearance,"[2]; male, Males, 8 mg/kg",2.23 L/h/kg
same,half-life,"[2]; male, Males, 8 mg/kg",15.6 min
same,Vd,"[2]; male, Males, 8 mg/kg",0.982 L/kg
same,AUC,"[2]; male, Males, 16 mg/kg",6.2 µg·h/mL
same,Cmax,"[2]; male, Males, 16 mg/kg",10.8 µg/mL
same,Tmax,"[2]; male, Males, 16 mg/kg",31.5 min
same,clearance,"[2]; male, Males, 16 mg/kg",2.58 L/h/kg
same,half-life,"[2]; male, Males, 16 mg/kg",15.5 min
same,Vd,"[2]; male, Males, 16 mg/kg",1.1 L/kg
same,AUC,"[2]; male, Males, 32 mg/kg",11 µg·h/mL
same,Cmax,"[2]; male, Males, 32 mg/kg",23 µg/mL
same,Tmax,"[2]; male, Males, 32 mg/kg",31.5 min
same,clearance,"[2]; male, Males, 32 mg/kg",2.91 L/h/kg
same,half-life,"[2]; male, Males, 32 mg/kg",14.9 min
same,Vd,"[2]; male, Males, 32 mg/kg",1.12 L/kg
same,"toxicities (weight loss, deaths)","[3]; TH302 50 mg/kg daily 5 days a week for 3 weeks, Taxotere 20 mg/kg once a week for three weeks i.v., or both",minimal weight loss; also recorded: no toxicity beyond Taxotere® related toxicities
same,reduction of bone metastases,[3]; [6],94%
same,reduction of soft tissue tumor burden,[3]; [6],95%
same,half-life,[4]; read-out: Mean t1/2,49.2 min
same,clearance,[4]; read-out: mean Cl (converted),3.28 L/h/kg
same,Vd,[4]; read-out: mean Vss,1.98 L/kg
same,mean surviving fraction (SF),[5]; mice breathing 10% O2,2.58%
same,mean surviving fraction (SF),[5]; mice breathing 21% O2,5.76%
same,mean surviving fraction (SF),[5]; mice breathing 95% O2,50.38%
